Data from US20110319484A1, “NEUROPROTECTIVE COMPOUNDS” (Parque Tecnologico de Ciencias de la Salud, priority 2009, published 2011).
Where a SMILES comes first, the peptide text is derived from it. The star is where a group is joined. Cbz = O=C(OCc1ccccc1)*; CH2F = FC*

What was measured:
[1] = test system: human neuroblastoma SK-N-MC cells; assay: Inhibition of ROS production induced by xanthine/xanthine oxidase (H2DCFDA probe, LDH-normalized); format: cell-based; conditions: XXO 10 μM-100 mU/ml, AA 100 μM, positive control
Method: The assay was performed on human neuroblastoma SK-N-MC cells in culture from the American Type Culture Collection (ATCC) (HTB-10), in all cases strict rules of sterility were followed and the manipulation was performed in class II biological safety cabinets following European standard EN 12469. The cells were maintained in Minimum Essential Medium Eagle (MEM) culture medium supplemented with 1 mM sodium pyruvate, 2 mM L-glutamine, 0.1 mM non-essential amino acids, 0.05 mg/ml gentamicin and 10% fetal bovine serum.
The inhibition by the NST0003 compound [(1S,3R,7S,8S,8aR)-1,2,3,7,8,8a-hexahydro-3,7-dimethyl-8-[2-[(2R,4R)-tetrahydro-4-hydroxy-6-oxo-2H-pyran-2-yl]ethyl-1-naphthalenyl propanoate] on the production of reactive oxygen species (ROS) in the SK-N-MC cells, was analyzed. […]
The cells were incubated (at 37° C. and 5% CO2) with these treatments for 3 h, after which time they were washed with HKRB buffer (20 mM HEPES, 103 mM NaCl, 4.77 mM KCl, 0.5 mM CaCl2, 1.2 mM MgCl2, 1.2 mM KH2PO4, 25 mM […], 15 mM glucose; at pH 7.3) after which the 2′,7′-dichlorodihydrofluorescein diacetate (H2DCFDA) probe was added at 30 μM diluted in HKRB buffer and it was incubated for another 2 hours in the same conditions. The reading of the plate was taken in a fluorometer at the conditions of 485 nm for excitation and 538 nm for emission. […]

SK-N-MC cells = assay: Inhibition of camptothecin-induced apoptosis by flow cytometry (propidium iodide, sub-G1); format: cell-based, human; conditions: camptothecin 50 μM, 6 h, Z-VAD-fmk 50 μM
Method: To that end, the inhibition caused by the NST0005 compound of apoptosis caused by the treatment with camptothecin (Campt) was analyzed. The SK-N-MC cells, not exceeding 15 passages, were seeded on 6-well plates treated for adherent cells with a cell concentration of 8×10^5 cells/well; 2 wells of the plate were seeded for each condition of the assay.
After 24 h of cell incubation at 37° C. and 5% CO2 the cell treatments were performed with 2 ml of total volume for the following conditions: (i), control (culture medium); (ii), camptothecin [50 μM]; (iii) camptothecin [50 μM] and Z-VAD-fmk [50 μM] (Alexis), as positive control of inhibition; and (iv), 50 μM camptothecin with NST0005 at different concentrations [4, 10, 40 and 100 μg/ml].
The cells were incubated (at 37° C. and 5% CO2) with these treatments for 6 h, after which time they were pooled together with their culture medium and centrifuged at 300×g for 5 minutes. The medium was removed, a washing was performed with phosphate buffered saline (PBS) and they were fixed for 2 minutes with 500 μl of 70% ethanol at −20° C. […] After this time, they were analyzed by flow cytometry, comparing the fluorescence of the propidium iodine against the amount of DNA. The percentage of apoptosis was measured on the sub-G1 region of each of the conditions. […]

[2] = test system: caspase 3/7 activation in SK-N-MC cells; assay: Inhibition of camptothecin-induced caspase 3/7 activation (Apo-ONE kit); format: cell-based, human; conditions: camptothecin 50 μM, 6 h, Z-VAD-fmk 50 μM
Method: To that end, the inhibition caused by (1S,3R,7S,8S,8aR)-1,2,3,7,8,8a-hexahydro-3,7-dimethyl-8-[2-[(2R,4R)-tetrahydro-4-hydroxy-6-oxo-2H-pyran-2-yl]ethyl-1-naphthalenyl 2,2-dimethylpropanoate (NST0005) of apoptosis caused by the treatment with camptothecin (Campt) on the SK-N-MC cells in culture was analyzed following the working conditions specified in section 3.1. Apoptosis can be quantified by measuring effector caspase activation. Caspases (proteins belonging to the cysteine-protease group) mediate the cleavage of a series of proteins triggering the signaling cascade which leads cells to apoptosis. […] The active cellular caspases 3 or 7 cause the cleavage of the substrate, emitting fluorescence which is read by means of a fluorometer.
The effect of the pretreatment of the NST0005 compound at 40 and 100 μg/ml on caspase 3/7 activation caused by 50 μM of camptothecin (Campt) in the SK-N-MC cells was thus analyzed. […]
The cells were incubated (at 37° C. and 5% CO2) with these treatments for 6 h, after which time the lysis buffer and the substrate rhodamine 110 were added at the concentrations specified by the manufacturer; they were incubated at room temperature for 30 minutes and the cells were then frozen at −20° C. overnight. They were thawed the next day and the reading of the plate was taken in a fluorometer at 499 nm for excitation and 521 nm for emission.

Row | Structure (SMILES) | inhibition at 100 µM [1] | inhibition of apoptosis caused by camptothecin (flow cytometry) (SK-N-MC cells) | inhibition of caspase 3/7 activation [2]
1 | O=C1O[C@H]([C@@H](O)CO)C(O)=C1O [AA, ascorbic acid, reference compound] | 80% | – | –
2 | COC(=O)C[C@H](NC(=O)[C@H](C)NC(=O)[C@@H](NC(=O)OCc1ccccc1)C(C)C)C(=O)CF [Z-VAD-fmk, reference compound] (Cbz-Val-Ala-Asp(OMe)-CH2F) | – | 30% | completely inhibited
